Source: article PMC10933344, “A lncRNA Dleu2-encoded peptide relieves autoimmunity by facilitating Smad3-mediated Treg induction” (EMBO Reports, 2024)

Tested on: CD4+ T cells in CNS of EAE mice
Assay: Flow cytometry of CNS T cells of treated EAE mice
Assay type: in vivo, mouse
Conditions: 100 μg i.v.
Protocol: Figure 5 Dleu2-17aa attenuates EAE by promoting Treg cells. (A) Schematic diagram of MOG-induced EAE and treatment strategies with Dleu2-17aa, scrPEP, and Glatiramer. Mice received 100 μg of Dleu2-17aa or scrPEP every 3 days via i.v. injection or 150 μg of Glatiramer every day for seven times via s.c. on days 9 to 15. (B) Clinical scores were examined daily from day 9 using a scoring system ranging from 0 (no sign) to 5 (complete paralysis or dead). The x-axis represents experimental days, and the y-axis represents symptom severity (n = 8–9). (C) Representative Luxol fast blue (LFB) and hematoxylin and eosin staining (H&E) staining sections for treated EAE spinal cord. Scale bars: 100 μm. (D) Histopathology scores of inflammations and demyelination in treated EAE mice spinal cord using a scoring system ranging from 0 (no inflammatory cells or demyelination) to 4 (extensive inflammatory cells infiltration or confluent foci of demyelination) (n = 5–8). (E) Representative dot plots (left panel) and frequency (right panel) of CD44^hiCD62L^lo activated T cells, Foxp3^+ Treg cells, IL-17A^+ Th17 cells, and IFN-γ^+ Th1 cells gated on CD4^+ T cells in the spleen 14 days post immunization of MOG (n = 3). (F) Representative dot plots and frequency of CD4^+, Foxp3^+ Treg cells, and IFN-γ^+ Th1 cells gated on CD4^+ T cells in the CNS 14 days post immunization of MOG (n = 3). Data information: n indicates biological replicate. Error bars are mean ± SEM; *P < 0.05, **P < 0.01, and ***P < 0.001, n.s. indicates no significant difference. Statistical analysis was by two-way ANOVA for (B) and two-tailed Student’s t-test for (D–F). Source data are available online for this figure. TEXT PRINTED IN THE PICTURE: (E) scrPEP: Spleen: CD62L-PE-DF594 / CD44-PE: 78.2; Spleen: Foxp3-PE / CD4-APC: 7.38; Spleen: IFN-γ-Percp-cy5.5 / Il-17A-FITC: 4.67; Spleen: IFN-γ-Percp-cy5.5 / Il-17A-FITC: 0.18; Spleen: IFN-γ-Percp-cy5.5 / Il-17A-FITC: 94.7; Spleen: IFN-γ-Percp-cy5.5 / Il-17A-FITC: 0.44 | (E) Dleu2-17aa: Spleen: CD62L-PE-DF594 / CD44-PE: 37.2; Spleen: Foxp3-PE / CD4-APC: 12.9; Spleen: IFN-γ-Percp-cy5.5 / Il-17A-FITC: 2.83; Spleen: IFN-γ-Percp-cy5.5 / Il-17A-FITC: 0.26; Spleen: IFN-γ-Percp-cy5.5 / Il-17A-FITC: 96.1; Spleen: IFN-γ-Percp-cy5.5 / Il-17A-FITC: 0.79 | (F) scrPEP: CNS: FSC / CD4-APC: 9.03; CNS: Foxp3-PE / CD4-APC: 8.47; CNS: IFN-γ-Percp-cy5.5 / Il-17A-FITC: 22.9; CNS: IFN-γ-Percp-cy5.5 / Il-17A-FITC: 2.00; CNS: IFN-γ-Percp-cy5.5 / Il-17A-FITC: 69.7; CNS: IFN-γ-Percp-cy5.5 / Il-17A-FITC: 5.44 | (F) Dleu2-17aa: CNS: FSC / CD4-APC: 3.33; CNS: Foxp3-PE / CD4-APC: 15.5; CNS: IFN-γ-Percp-cy5.5 / Il-17A-FITC: 13.9; CNS: IFN-γ-Percp-cy5.5 / Il-17A-FITC: 2.65; CNS: IFN-γ-Percp-cy5.5 / Il-17A-FITC: 77.7; CNS: IFN-γ-Percp-cy5.5 / Il-17A-FITC: 5.79 DOUBTS OF THE COPYIST ABOUT THIS PICTURE: Panels E and F: the gate and quadrant numbers in the dot plots are printed with no measure or unit; the tissue heading and the axis labels of each plot are written in front of them. For the quadrant plots the order is upper left, upper right, lower left, lower right. / Panels E and F: the gate numbers are in small print, so 3, 5, 6, 8 and 9 are best readings: E scrPEP 78.2, 7.38, 4.67, 0.18, 94.7; E Dleu2-17aa 37.2, 12.9, 2.83, 0.26, 96.1, 0.79; F scrPEP 9.03, 8.47, 22.9, 69.7, 5.44; F Dleu2-17aa 3.33, 15.5, 13.9, 2.65, 5.79.
For active EAE immunization, myelin oligodendrocyte glycoprotein peptide (MOGp35–55, […], GenScript) was emulsified in complete Freund adjuvant (Sigma-Aldrich). An equivalent of 300 μg MOG peptide was injected per mouse subcutaneously followed by 200 ng of pertussis toxin (Merck-Calbiochem) injection intravenously on day 0 and day 2 of immunization. […]

ARGPARRMRGGRRRRLR [scrPEP, scrambled control peptide of Dleu2-17aa]
CD4+ / Live Cells(%) (replicate 1): 9.03%
Foxp3+/ CD4+ Cells (%) (replicate 1): 8.94%
IFN-γ+/ CD4+ Cells(%) (replicate 1): 22.8%
CD4+ / Live Cells(%) (replicate 2): 10.1%
Foxp3+/ CD4+ Cells (%) (replicate 2): 9.11%
IFN-γ+/ CD4+ Cells(%) (replicate 2): 22.9%
CD4+ / Live Cells(%) (replicate 3): 9.74%
Foxp3+/ CD4+ Cells (%) (replicate 3): 8.47%
IFN-γ+/ CD4+ Cells(%) (replicate 3): 23.8%
